Test results: US7705191B2, “Hydrofluoroalkyl phenols having anesthetic properties” (University of Iowa Research Foundation, priority 2006, dated 2010)

How the values were obtained:
GABA receptors = assay: In vitro assay of direct activation of GABA receptors; type: cell-based; details: FIG. 2
From the text: FIG. 2 is a graph showing the direct activation of GABA receptors by phenolic compounds.
Propofol and analogs are known to activate GABA receptors (see, e.g., Trapani et al., J. Med. Chem. 1998, 41, 1846-1854, incorporated herein by reference). While the relationship between GABA activation and anesthetic activity is not completely clear, it is believed that the ability of a compound to directly activate GABA receptors may be related to the anesthetic, sedative, and/or anxiolytic activity of the compound. Compounds of the invention can be tested in vitro electrophysiological assays to determine the ability of the compound to activate GABA receptors.
Certain compounds were tested in an in vitro assay to determine whether the compounds were capable of direct activation of GABA receptors.

rat = assay: Loss of righting reflex / anesthesia after intravenous injection in rats; type: in vivo; details: for duration of anesthesia / loss of righting reflex: 10 mg/kg i.v. bolus; for onset of loss of righting reflex: two rats
Procedure: For Examples 2 and 3, compounds were administered into the […] of the rat. The vehicle was 12-16% Cremophor EL dissolved in saline. The purity of each compound was approximately 96%.
Compound 1 was synthesized as described in Example 1. Approximately 15 mg/ml of the suspension were injected into the lateral tail vein of two rats (weight 300-320 g). […] The loss of righting reflex lasted for about 4 to 5 minutes. Upon awaking, the animals became active (e.g., started exploring behavior, walking, chewing, etc.).
Compound 3 (prepared as in Example 1) was formulated in Cremophor EL at a concentration of 10 mg/ml. Compound 3 was injected into the lateral tail vein of two rats at a dose of 10 mg/kg.

[1] = lateral tail vein injection, approximately 15 mg/ml suspension

| Structure (SMILES) | direct activation of GABA receptors (GABA receptors) | duration of anesthesia / loss of righting reflex (rat) | potency relative to propofol (rat; 10 mg/kg, inferred from duration of loss of righting reflex) | onset of loss of righting reflex (rat; lateral tail vein injection, 10 mg/kg, 10 mg/ml in Cremophor EL) | response to tail pinching during loss of righting reflex (rat; [1]) | shaking or tremors during induction or recovery (rat; [1]) | onset of loss of righting reflex (rat; lateral tail vein injection, approximately 15 mg/ml suspension, Cremophor EL/saline vehicle) |
| --- | --- | --- | --- | --- | --- | --- | --- |
| CC(C)c1cccc(C(C)C(F)(F)F)c1O (stereo not shown) [Compound 3, 2-isopropyl-6-(1-trifluoromethyl)ethyl phenol] | found to have activity | approximately 10 min | more potent than propofol | immediately lost their righting reflex | – | – | – |
| CC(C)c1cc(C(O)C(F)(F)F)cc(C(C)C)c1O (stereo not shown) [MB003, 2,6-Diisopropyl-4-(2,2,2-trifluoro-1-hydroxy-ethyl)-phenol] | found to have activity | – | – | – | – | – | – |
| CC(C)c1cccc(CC(F)(F)F)c1O [Compound 1, 2-isopropyl-6-(2,2,2-trifluoroethyl) phenol] | found to have activity | – | – | – | did not respond to tail pinching | did not exhibit shaking or tremors | immediately lost their righting reflex |
| CC(C)c1cccc(C(C)C)c1O [Propofol, 2,6-diisopropylphenol, reference compound] | – | 7.5 min | – | – | – | – | – |
